Test results: ChEMBL document CHEMBL1201862, “PubChem BioAssay data set” (2004)
Active and inactive are the calls of the source.

Tests used:
Ephrin type-A receptor 4 = Ephrin type-A receptor 4 (Mus musculus, UniProt Q03137); experiment: inhibitors of EphA4 binding to KYL peptide, primary screen, biochemical, colorimetric, mouse EphA4 (AID 689); assay type: functional
[1] = Luminescence Cell-Based Dose Retest to Confirm Inhibitors of Cancer Stem Cells. [Related pubchem assays (depositor defined):AID2717, AID2721]; assay type: functional, Homo sapiens; conditions: Homo sapiens
[2] = target: T1, Hepatocyte nuclear factor 4-alpha (Homo sapiens, UniProt P41235); assay type: functional, cell-based;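 note: biochemical luminescence-based dose-response counterscreen measuring inhibition of HNF4 dimerization, run alongside a screen for blockers of ABHD5–perilipin-5 interaction; split luciferase complementation of HNF4 fusion proteins in cell lysate measuring dimerization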
T1 sequence (P41235 whole entry): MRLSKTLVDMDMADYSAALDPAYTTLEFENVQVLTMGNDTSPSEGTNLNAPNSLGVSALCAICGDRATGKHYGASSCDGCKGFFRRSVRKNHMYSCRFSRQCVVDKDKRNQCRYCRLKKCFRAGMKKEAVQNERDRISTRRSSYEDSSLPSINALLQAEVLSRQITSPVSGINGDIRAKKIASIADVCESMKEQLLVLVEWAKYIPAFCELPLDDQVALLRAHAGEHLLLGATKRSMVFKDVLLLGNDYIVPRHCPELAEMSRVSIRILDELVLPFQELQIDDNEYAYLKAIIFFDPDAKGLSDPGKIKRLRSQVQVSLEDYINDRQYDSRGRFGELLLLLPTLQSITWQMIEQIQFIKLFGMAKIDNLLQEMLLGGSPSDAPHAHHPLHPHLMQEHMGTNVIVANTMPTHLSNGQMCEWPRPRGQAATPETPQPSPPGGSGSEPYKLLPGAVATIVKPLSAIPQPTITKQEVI

[3] = target: Voltage-gated inwardly rectifying potassium channel KCNH2 (Homo sapiens, UniProt Q12809); experiment: hERG protection from proarrhythmic block, potency, dose response, cell-based, thallium flux (AID 2121); assay type: ADME
Cytochrome P450 3A4 = Cytochrome P450 3A4 (Homo sapiens, UniProt P08684);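 note: CYP3A4 tested as one member of a cytochrome P450 panel screen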
Estrogen receptor beta = Estrogen receptor beta (Homo sapiens, UniProt Q92731);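 note: recombinant ER-beta bound to coactivator SRC1 peptide in presence of estradiol agonist; inhibitors block coactivator peptide binding and lower the FRET signal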
[4] = target: T2, Histone-lysine N-methyltransferase NSD2 (Homo sapiens, UniProt O96028); assay type: biochemical
T2 sequence (O96028 whole entry): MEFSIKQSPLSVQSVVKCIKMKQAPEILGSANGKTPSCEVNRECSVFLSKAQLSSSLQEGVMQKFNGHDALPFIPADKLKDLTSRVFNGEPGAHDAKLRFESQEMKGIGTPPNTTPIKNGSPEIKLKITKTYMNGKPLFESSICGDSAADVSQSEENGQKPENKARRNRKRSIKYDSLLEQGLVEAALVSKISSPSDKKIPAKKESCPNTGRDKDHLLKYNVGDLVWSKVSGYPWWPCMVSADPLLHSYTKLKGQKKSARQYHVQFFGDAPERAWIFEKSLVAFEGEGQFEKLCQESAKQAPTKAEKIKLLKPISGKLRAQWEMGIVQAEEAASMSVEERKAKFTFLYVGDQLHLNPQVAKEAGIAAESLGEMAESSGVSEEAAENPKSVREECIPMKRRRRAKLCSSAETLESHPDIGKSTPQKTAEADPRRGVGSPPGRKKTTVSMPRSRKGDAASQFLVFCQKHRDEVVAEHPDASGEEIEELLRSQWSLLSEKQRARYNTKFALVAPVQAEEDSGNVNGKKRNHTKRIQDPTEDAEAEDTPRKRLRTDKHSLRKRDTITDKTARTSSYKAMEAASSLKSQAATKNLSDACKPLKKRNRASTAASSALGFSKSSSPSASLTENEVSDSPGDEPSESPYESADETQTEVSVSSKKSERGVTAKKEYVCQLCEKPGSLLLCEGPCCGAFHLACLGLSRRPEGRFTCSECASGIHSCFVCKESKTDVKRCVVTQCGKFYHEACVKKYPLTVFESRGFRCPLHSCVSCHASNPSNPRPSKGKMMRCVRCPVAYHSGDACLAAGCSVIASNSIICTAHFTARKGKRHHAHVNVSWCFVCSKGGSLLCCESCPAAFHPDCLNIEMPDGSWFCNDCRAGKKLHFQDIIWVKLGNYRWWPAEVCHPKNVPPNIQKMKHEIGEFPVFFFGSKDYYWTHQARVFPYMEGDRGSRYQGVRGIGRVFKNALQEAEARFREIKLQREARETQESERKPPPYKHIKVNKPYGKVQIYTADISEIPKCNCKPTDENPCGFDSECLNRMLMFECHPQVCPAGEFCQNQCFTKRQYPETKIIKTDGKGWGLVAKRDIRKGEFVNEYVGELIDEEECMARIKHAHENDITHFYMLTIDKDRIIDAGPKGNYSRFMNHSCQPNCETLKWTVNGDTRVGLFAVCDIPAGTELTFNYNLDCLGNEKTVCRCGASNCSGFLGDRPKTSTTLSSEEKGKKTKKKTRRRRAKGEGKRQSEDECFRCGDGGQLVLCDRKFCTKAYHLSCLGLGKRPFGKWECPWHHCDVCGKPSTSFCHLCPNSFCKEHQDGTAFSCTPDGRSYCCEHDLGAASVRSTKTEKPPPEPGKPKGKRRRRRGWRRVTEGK

[5] = target: T3, Mannose-6-phosphate isomerase (Homo sapiens, UniProt P34949); experiment: human PMI inhibitors, high substrate, primary screen, biochemical, fluorescence intensity, high mannose 6-phosphate (AID 1220)
T3 sequence (P34949 whole entry): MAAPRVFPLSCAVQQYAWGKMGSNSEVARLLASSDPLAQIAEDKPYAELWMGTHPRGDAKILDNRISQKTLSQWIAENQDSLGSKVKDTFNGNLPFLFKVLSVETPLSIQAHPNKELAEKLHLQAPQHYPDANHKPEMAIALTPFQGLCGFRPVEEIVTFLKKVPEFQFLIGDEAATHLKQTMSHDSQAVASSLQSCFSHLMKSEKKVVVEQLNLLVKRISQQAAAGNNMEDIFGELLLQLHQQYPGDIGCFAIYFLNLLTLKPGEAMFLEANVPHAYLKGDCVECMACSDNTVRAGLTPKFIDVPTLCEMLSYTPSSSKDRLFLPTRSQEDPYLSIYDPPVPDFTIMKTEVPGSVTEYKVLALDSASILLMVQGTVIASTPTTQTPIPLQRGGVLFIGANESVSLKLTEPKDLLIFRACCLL

Estrogen receptor = target: T4, Estrogen receptor (Homo sapiens, UniProt P03372);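 note: potency for inhibiting coactivator peptide recruitment to the receptor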
T4 sequence (P03372 whole entry): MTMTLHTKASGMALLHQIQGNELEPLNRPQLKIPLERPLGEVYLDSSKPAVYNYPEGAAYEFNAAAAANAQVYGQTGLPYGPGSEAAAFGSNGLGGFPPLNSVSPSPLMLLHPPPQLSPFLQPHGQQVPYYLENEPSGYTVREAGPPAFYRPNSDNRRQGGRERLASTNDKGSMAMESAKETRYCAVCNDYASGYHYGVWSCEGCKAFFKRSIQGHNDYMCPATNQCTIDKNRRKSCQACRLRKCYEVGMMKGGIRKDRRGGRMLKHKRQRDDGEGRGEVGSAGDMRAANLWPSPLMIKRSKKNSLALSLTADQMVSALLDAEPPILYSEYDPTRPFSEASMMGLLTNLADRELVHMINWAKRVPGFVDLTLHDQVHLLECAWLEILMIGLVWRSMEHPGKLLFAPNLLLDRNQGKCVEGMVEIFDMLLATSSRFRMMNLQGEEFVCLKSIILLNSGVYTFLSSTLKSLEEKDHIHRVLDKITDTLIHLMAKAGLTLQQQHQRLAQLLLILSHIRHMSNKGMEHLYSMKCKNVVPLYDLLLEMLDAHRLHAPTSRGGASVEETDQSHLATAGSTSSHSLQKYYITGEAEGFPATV

[6] = target: T5, High affinity choline transporter 1 (Homo sapiens, UniProt Q9GZV3); experiment: CHT inhibitors, dose response, cell-based, 5-point CRC, membrane potential dye (AID 504840); assay type: functional
T5 sequence (Q9GZV3 whole entry): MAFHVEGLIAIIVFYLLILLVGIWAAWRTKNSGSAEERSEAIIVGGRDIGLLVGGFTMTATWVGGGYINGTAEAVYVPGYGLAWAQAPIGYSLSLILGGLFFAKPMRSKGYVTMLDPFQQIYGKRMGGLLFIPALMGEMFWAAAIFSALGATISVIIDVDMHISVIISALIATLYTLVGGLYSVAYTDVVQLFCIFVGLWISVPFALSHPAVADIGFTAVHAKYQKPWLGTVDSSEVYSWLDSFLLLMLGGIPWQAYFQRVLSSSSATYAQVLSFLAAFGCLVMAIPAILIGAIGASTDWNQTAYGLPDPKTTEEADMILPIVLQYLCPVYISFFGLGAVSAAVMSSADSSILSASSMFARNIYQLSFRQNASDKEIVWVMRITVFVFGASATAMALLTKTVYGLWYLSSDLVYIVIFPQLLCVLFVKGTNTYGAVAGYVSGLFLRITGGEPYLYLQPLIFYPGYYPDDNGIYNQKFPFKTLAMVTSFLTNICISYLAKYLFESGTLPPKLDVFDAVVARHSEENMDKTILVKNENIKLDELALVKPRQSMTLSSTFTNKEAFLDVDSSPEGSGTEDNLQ

[7] = inhibitors of intracellular T. cruzi replication, confirmation, NIH3T3 host cells, beta-gal luminescence (AID 2044); assay type: functional, cell-based;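 note: intracellular parasites grown in NIH/3T3 mouse fibroblasts as host cells; luminescent beta-galactosidase reporter signal from transgenic T. cruzi replicating inside host cells; inhibitors lower the luminescence signal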
[8] = cytotoxicity toward NIH3T3 fibroblasts, dose response, counter-screen, cell-based, ATP luminescence, mouse fibroblasts (AID 2010); assay type: functional;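 note: cells exposed to compound for about 90 hours before reading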
[9] = target: T6, Dual specificity protein phosphatase 3 (Homo sapiens, UniProt P51452); experiment: VHR1 phosphatase inhibitors, primary screen, biochemical, absorbance, uHTS (AID 1654)
[10] = target: T6, Dual specificity protein phosphatase 3; experiment: VHR1 phosphatase inhibitors, biochemical (AID 1878)
[11] = target: T7, Dual specificity protein phosphatase 6 (Rattus norvegicus, UniProt Q64346); experiment: MKP-3 phosphatase inhibitors, primary screen, biochemical, rat enzyme, in vitro (AID 425)
T7 sequence (Q64346 whole entry): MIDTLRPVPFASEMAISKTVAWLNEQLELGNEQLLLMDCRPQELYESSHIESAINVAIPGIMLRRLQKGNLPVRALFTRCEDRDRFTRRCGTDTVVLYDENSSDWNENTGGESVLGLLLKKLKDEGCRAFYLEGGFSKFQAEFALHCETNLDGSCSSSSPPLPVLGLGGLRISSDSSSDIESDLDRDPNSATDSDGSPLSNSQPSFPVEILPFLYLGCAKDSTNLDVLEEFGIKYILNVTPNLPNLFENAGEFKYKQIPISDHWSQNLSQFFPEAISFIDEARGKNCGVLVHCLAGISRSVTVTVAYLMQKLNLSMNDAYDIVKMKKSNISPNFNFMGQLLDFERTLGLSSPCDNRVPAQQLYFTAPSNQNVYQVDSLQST

[12] = target: Induced myeloid leukemia cell differentiation protein Mcl-1 (Homo sapiens, UniProt Q07820); assay type: functional
[13] = THP-1 cell cytotoxicity, dose response, cytotoxicity control for Vif-APOBEC3G degradation inhibitor project, THP-1 cells (AID 1117359); assay type: functional; conditions: Human immunodeficiency virus 1, THP-1

Sequence of Estrogen receptor beta (Q92731 whole entry): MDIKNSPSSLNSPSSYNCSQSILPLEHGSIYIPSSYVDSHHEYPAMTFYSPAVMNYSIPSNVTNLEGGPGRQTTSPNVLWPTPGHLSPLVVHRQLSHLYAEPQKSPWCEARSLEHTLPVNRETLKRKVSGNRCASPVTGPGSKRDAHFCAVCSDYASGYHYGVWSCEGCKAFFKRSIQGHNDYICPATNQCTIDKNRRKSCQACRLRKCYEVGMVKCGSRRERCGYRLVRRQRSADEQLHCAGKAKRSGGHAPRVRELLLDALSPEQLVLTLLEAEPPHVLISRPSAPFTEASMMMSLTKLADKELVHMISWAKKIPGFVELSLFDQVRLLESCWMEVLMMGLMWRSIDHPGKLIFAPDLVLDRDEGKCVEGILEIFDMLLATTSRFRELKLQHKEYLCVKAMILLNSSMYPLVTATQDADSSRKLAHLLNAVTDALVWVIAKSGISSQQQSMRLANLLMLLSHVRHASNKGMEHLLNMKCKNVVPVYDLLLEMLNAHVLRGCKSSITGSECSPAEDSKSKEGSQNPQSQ
T6 sequence (P51452 whole entry): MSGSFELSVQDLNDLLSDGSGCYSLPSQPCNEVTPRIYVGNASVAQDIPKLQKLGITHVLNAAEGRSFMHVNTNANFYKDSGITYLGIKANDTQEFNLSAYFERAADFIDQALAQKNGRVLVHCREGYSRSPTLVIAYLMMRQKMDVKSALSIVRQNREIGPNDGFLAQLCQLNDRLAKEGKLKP
Sequence of Ephrin type-A receptor 4 (Q03137 whole entry): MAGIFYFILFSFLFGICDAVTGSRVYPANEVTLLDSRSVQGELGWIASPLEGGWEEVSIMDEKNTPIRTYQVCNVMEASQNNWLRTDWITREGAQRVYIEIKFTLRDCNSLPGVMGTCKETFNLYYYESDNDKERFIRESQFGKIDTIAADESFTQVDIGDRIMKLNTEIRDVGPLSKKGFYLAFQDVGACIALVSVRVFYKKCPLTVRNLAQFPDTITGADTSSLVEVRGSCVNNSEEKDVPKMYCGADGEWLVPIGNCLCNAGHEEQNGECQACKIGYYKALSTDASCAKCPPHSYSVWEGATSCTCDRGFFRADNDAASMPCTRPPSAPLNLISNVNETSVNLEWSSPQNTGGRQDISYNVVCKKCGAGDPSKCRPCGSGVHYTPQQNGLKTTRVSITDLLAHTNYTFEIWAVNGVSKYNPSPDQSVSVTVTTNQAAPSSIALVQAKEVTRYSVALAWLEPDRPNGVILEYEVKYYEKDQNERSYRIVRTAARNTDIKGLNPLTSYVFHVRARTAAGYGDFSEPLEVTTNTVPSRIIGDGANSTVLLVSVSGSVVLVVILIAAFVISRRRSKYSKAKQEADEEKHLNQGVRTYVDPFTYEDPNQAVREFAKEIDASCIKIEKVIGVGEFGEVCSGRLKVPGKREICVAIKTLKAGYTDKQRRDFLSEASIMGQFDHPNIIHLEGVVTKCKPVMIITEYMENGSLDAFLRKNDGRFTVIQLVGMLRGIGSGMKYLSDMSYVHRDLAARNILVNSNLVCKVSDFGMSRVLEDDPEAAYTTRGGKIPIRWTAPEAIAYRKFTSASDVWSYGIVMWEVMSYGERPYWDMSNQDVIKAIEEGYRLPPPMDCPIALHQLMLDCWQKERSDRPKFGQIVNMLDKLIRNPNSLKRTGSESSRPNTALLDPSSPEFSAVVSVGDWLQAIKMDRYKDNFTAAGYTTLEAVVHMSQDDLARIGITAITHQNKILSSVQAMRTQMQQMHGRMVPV
Sequence of Induced myeloid leukemia cell differentiation protein Mcl-1 (Q07820 whole entry): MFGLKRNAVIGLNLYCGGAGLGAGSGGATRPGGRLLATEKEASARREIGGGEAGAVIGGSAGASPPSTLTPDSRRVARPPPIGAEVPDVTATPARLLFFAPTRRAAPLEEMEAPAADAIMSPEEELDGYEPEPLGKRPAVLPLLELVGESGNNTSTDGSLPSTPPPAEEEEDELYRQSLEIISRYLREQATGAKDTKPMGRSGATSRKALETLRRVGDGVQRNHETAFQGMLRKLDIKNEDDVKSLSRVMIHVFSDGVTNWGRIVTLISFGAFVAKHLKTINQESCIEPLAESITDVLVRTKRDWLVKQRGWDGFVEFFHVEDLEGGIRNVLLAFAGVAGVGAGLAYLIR
Sequence of Voltage-gated inwardly rectifying potassium channel KCNH2 (Q12809 whole entry): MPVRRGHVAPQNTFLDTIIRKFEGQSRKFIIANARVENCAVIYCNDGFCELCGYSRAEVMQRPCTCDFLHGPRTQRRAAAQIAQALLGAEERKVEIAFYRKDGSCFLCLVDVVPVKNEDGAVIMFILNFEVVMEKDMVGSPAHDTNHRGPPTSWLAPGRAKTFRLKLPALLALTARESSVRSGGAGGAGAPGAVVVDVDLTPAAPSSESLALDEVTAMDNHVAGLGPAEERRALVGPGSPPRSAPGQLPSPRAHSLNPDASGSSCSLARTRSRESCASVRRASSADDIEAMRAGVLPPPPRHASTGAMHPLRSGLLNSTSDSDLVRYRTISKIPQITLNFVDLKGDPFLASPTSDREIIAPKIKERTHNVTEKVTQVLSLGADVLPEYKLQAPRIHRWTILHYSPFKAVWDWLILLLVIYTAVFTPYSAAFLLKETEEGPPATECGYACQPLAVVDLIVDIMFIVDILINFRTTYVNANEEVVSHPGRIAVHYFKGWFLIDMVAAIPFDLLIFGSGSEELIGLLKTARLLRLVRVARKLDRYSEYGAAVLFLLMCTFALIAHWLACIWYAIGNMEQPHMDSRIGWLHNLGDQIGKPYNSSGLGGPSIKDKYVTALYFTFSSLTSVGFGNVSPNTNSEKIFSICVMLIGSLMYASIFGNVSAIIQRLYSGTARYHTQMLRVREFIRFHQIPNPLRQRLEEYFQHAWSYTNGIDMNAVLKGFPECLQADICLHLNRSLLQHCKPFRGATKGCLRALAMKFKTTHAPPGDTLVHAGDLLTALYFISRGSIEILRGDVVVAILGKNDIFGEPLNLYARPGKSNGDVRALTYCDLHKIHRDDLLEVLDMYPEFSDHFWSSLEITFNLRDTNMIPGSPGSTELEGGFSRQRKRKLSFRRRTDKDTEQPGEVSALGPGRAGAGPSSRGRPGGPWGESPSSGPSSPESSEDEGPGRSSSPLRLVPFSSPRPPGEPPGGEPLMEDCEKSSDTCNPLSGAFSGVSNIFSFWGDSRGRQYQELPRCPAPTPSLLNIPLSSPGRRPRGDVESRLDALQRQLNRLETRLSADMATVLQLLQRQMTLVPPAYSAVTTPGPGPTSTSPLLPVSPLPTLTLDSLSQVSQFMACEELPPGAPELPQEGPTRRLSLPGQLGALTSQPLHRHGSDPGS
Sequence of Cytochrome P450 3A4 (P08684 whole entry): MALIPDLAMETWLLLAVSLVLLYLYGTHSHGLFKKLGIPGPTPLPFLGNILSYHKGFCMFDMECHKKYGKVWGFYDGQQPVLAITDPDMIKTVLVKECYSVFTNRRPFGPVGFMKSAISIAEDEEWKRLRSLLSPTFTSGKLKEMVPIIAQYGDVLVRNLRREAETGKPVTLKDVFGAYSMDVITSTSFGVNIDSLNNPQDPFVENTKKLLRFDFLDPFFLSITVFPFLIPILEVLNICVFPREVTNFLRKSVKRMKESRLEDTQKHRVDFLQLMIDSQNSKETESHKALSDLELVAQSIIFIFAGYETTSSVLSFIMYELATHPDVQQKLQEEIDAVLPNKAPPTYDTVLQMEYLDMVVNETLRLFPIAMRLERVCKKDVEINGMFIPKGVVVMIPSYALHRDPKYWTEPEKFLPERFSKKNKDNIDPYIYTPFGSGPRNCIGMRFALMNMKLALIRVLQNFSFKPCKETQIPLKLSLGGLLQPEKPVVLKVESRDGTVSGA

For CCOC(=O)c1c(NC(C)=O)sc2c1CCC(C=O)=C2Sc1ccccc1, which IC50 (Ephrin type-A receptor 4) is on record?
The IC50 was 2.26 µM (active).

What about the AC50 [1] of the same compound?
Its AC50 is 3.85 µM (active).

And the IC50 [2]?
Its IC50 is 28.1 µM (inactive).

For O=C(NC(=S)Nc1cccc(Cl)c1N1CCCCC1)c1ccco1, which EC50 [3] is on record?
The EC50 was 0.46 µM (active).

What about the AC50 [1] of the same compound?
Its AC50 is 4.12 µM (active).

And the AC50 (Cytochrome P450 3A4)?
The AC50 was 15.8 µM (inconclusive).

With CC1(C)CCCC2=C1CC1C(=O)N(O)C(=O)C1C2 (stereo unspecified) as the compound, how does the IC50 (Estrogen receptor beta) read?
Its IC50 is > 50 µM (not active).

Which results are given for CCN(CC)CCCN(Cc1cc2cc3c(cc2nc1O)OCCO3)C(=O)Nc1ccccc1?
IC50 (Ephrin type-A receptor 4): 13.3 µM (active); AC50 [4]: > 20 µM (inactive)

For CC1Cc2ccccc2N1C(=O)CSc1nnc(-c2ccc(S(=O)(=O)N3CCCC3)cc2)n1C (stereo unspecified), which IC50 [5] is on record?
Its IC50 is > 50 µM (not active).

Which IC50 (Estrogen receptor) does the source give for Cc1sc2ncnc(NCc3ccco3)c2c1C here?
Its IC50 is 35.3 µM (not active).

And the IC50 (Estrogen receptor beta)?
Its IC50 is 29.4 µM (active).

And the IC50 [6]?
Its IC50 is 13.2 µM (active).

Which results are given for C=C1N(C)c2cc([N+](=O)[O-])c(N)cc2C1(C)C?
EC50 [7]: 5.96 µM (active); EC50 [8]: > 60 µM (not active); IC50 [5]: 11.5 µM (active)

For COC(=O)c1ccc(O)c2nc3c(C=O)c(O)cc(O)c3nc12 [LOMOFUNGIN], which IC50 [9] is on record?
Its IC50 is 2.06 µM (active).

What about the IC50 [10] of the same compound?
Its IC50 is < 1.23 µM (inactive).

And the IC50 [11]?
The IC50 was 48.2 µM (active).

What about the IC50 [12] of the same compound?
Its IC50 is 3.76 µM (active).

And the CC50 [13]?
The CC50 was 8.31 µM (active).
